ChEMBL document CHEMBL5500384, “New synergistic benzoquinone scaffolds as inhibitors of mycobacterial cytochrome bc1 complex to treat multi-drug resistant tuberculosis” (Eur J Med Chem, 2024)

Assays:
[1] = system: Mycobacterium tuberculosis; assay: Antitubercular activity against Mycobacterium tuberculosis H37Rv incubated for 5 days by microtiter plate method; format: functional; details: 120 h, time 5 day
[2] = Acute toxicity in Albino mouse assessed as change in serum urea level at 50 to 2000 mg/kg, po measured after 14 days (reference value: 46 mg/dl); format: organism-based; details: in vivo, 336 h, dose 50-2000 mg/kg, time 14 day
[3] = Pulmonary toxicity in Albino mouse assessed as change in alveolar sacs at 50 to 2000 mg/kg, po measured after 14 days; format: organism-based; details: in vivo, 336 h, dose 50-2000 mg/kg, time 14 day
[4] = Acute toxicity in Albino mouse assessed as change in RBC count measured per million cells at 50 to 2000 mg/kg, po measured after 14 days (reference value: 9.15 microL); format: organism-based, Erythrocyte; details: in vivo, 336 h, dose 50-2000 mg/kg, time 14 day
[5] = Hepatotoxicity in Albino mouse assessed as change in portal vein at 50 to 2000 mg/kg, po measured after 14 days; format: toxicity, organism-based; details: in vivo, 336 h, dose 50-2000 mg/kg, time 14 day
[6] = Cytotoxicity against african green monkey Vero cells assessed as cell viability at 12.5 ug/ml by MTT assay; format: toxicity, cell-based; details: chlorocebus sabaeus, at 12.5 µg/mL, read-out: Activity
[7] = Cytotoxicity against african green monkey Vero cells assessed as cell viability at 25 ug/ml by MTT assay; format: toxicity, cell-based; details: chlorocebus sabaeus, at 25 µg/mL, read-out: Activity
[8] = Hepatotoxicity in Albino mouse assessed as change in portal tracks at 50 to 2000 mg/kg, po measured after 14 days; format: toxicity, organism-based; details: in vivo, 336 h, dose 50-2000 mg/kg, time 14 day
[9] = Acute toxicity in Albino mouse assessed as change in LDH level at 50 to 2000 mg/kg, po measured after 14 days (reference value: 1052 IU/L); format: organism-based; details: in vivo, 336 h, dose 50-2000 mg/kg, time 14 day
[10] = Acute toxicity in Albino mouse assessed as change in SGOT count at 50 to 2000 mg/kg, po measured after 14 days (reference value: 42 IU/L); format: organism-based; details: in vivo, 336 h, dose 50-2000 mg/kg, time 14 day
[11] = Renal toxicity in Albino mouse assessed as structural absorbability abnormalities at 50 to 2000 mg/kg, po measured after 14 days; format: organism-based; details: in vivo, 336 h, dose 50-2000 mg/kg, time 14 day
[12] = Renal toxicity in Albino mouse assessed as change in renal tubules at 50 to 2000 mg/kg, po measured after 14 days; format: organism-based; details: in vivo, 336 h, dose 50-2000 mg/kg, time 14 day
[13] = Hepatotoxicity in Albino mouse assessed as change in central vein at 50 to 2000 mg/kg, po measured after 14 days; format: toxicity, organism-based; details: in vivo, 336 h, dose 50-2000 mg/kg, time 14 day
[14] = Cytotoxicity against african green monkey Vero cells assessed as cell viability at 100 ug/ml by MTT assay; format: toxicity, cell-based; details: chlorocebus sabaeus, at 100 µg/mL, read-out: Activity
[15] = Renal toxicity in Albino mouse assessed as change in tubular capillaries at 50 to 2000 mg/kg, po measured after 14 days; format: organism-based; details: in vivo, 336 h, dose 50-2000 mg/kg, time 14 day
[16] = Acute toxicity in Albino mouse assessed as change in lymphocytes at 50 to 2000 mg/kg, po measured after 14 days (reference value: 21%); format: organism-based; details: in vivo, 336 h, dose 50-2000 mg/kg, time 14 day
[17] = Acute toxicity in Albino mouse assessed as change in ALP level at 50 to 2000 mg/kg, po measured after 14 days (reference value: 28 IU/L); format: organism-based; details: in vivo, 336 h, dose 50-2000 mg/kg, time 14 day
[18] = Acute toxicity in Albino mouse assessed as mortality at 300 mg/kg, po after 5 to 8 hrs; format: organism-based; details: in vivo, time 5-8 hrs
[19] = Acute toxicity in Albino mouse assessed as change in monocytes at 50 to 2000 mg/kg, po measured after 14 days (reference value: 1%); format: organism-based; details: in vivo, 336 h, dose 50-2000 mg/kg, time 14 day
[20] = Renal toxicity in Albino mouse assessed as change in distal convoluted tubules at 50 to 2000 mg/kg, po measured after 14 days; format: organism-based; details: in vivo, 336 h, dose 50-2000 mg/kg, time 14 day
[21] = Acute toxicity in Albino mouse assessed as change in serum creatine level at 50 to 2000 mg/kg, po measured after 14 days (reference value: 0.9 mg/dl); format: organism-based; details: in vivo, 336 h, dose 50-2000 mg/kg, time 14 day
[22] = Acute toxicity in Albino mouse assessed as change in total leucocyte count at 50 to 2000 mg/kg, po measured after 14 days (reference value: 7400 mm3); format: organism-based; details: in vivo, 336 h, dose 50-2000 mg/kg, time 14 day
[23] = Cytotoxicity against african green monkey Vero cells by MTT assay; format: toxicity, cell-based; details: chlorocebus sabaeus
[24] = Pulmonary toxicity in Albino mouse assessed as change in bronchi structure at 50 to 2000 mg/kg, po measured after 14 days; format: organism-based; details: in vivo, 336 h, dose 50-2000 mg/kg, time 14 day
[25] = Cytotoxicity against african green monkey Vero cells assessed as cell viability at 3.125 ug/ml by MTT assay; format: toxicity, cell-based; details: chlorocebus sabaeus, at 3.125 µg/mL, read-out: Activity
[26] = Acute toxicity in Albino mouse assessed as change in eosinophils at 50 to 2000 mg/kg, po measured after 14 days (reference value: 3%); format: organism-based; details: in vivo, 336 h, dose 50-2000 mg/kg, time 14 day
[27] = Pulmonary toxicity in Albino mouse assessed as appearance of goblet cells at 50 to 2000 mg/kg, po measured after 14 days; format: organism-based; details: in vivo, 336 h, dose 50-2000 mg/kg, time 14 day
[28] = Pulmonary toxicity in Albino mouse assessed as appearance of cilia at 50 to 2000 mg/kg, po measured after 14 days; format: organism-based; details: in vivo, 336 h, dose 50-2000 mg/kg, time 14 day
[29] = Renal toxicity in Albino mouse assessed as change in Bowman's capsule at 50 to 2000 mg/kg, po measured after 14 days; format: organism-based; details: in vivo, 336 h, dose 50-2000 mg/kg, time 14 day
[30] = Renal toxicity in Albino mouse assessed as change in renal corpuscles at 50 to 2000 mg/kg, po measured after 14 days; format: organism-based; details: in vivo, 336 h, dose 50-2000 mg/kg, time 14 day
[31] = Cytotoxicity against african green monkey Vero cells assessed as cell viability at 6.25 ug/ml by MTT assay; format: toxicity, cell-based; details: chlorocebus sabaeus, at 6.25 µg/mL, read-out: Activity
[32] = Hepatotoxicity in Albino mouse assessed as change in bile duct at 50 to 2000 mg/kg, po measured after 14 days; format: toxicity, organism-based, Liver; details: in vivo, 336 h, dose 50-2000 mg/kg, time 14 day
[33] = Acute toxicity in po dosed Albino mouse assessed as mortality after 14 days; format: organism-based; details: in vivo, time 14 day
[34] = Acute toxicity in Albino mouse assessed as mortality at 2000 mg/kg, po after 2 to 4 hrs; format: organism-based; details: in vivo, time 2-4 hrs
[35] = Renal toxicity in Albino mouse assessed as change in proximal convoluted tubules at 50 to 2000 mg/kg, po measured after 14 days; format: organism-based; details: in vivo, 336 h, dose 50-2000 mg/kg, time 14 day
[36] = Acute toxicity in Albino mouse assessed as change in SGPT count at 50 to 2000 mg/kg, po measured after 14 days (reference value: 52 IU/L); format: organism-based; details: in vivo, 336 h, dose 50-2000 mg/kg, time 14 day
[37] = Acute toxicity in Albino mouse assessed as mortality at 50 mg/kg, po after 14 days; format: organism-based; details: in vivo, 336 h, time 14 day
[38] = Cytotoxicity against african green monkey Vero cells assessed as cell viability at 50 ug/ml by MTT assay; format: toxicity, cell-based; details: chlorocebus sabaeus, at 50 µg/mL, read-out: Activity
[39] = Acute toxicity in Albino mouse assessed as change in hemoglobin level at 50 to 2000 mg/kg, po measured after 14 days (reference value: 12.8 g/dl); format: organism-based; details: in vivo, 336 h, dose 50-2000 mg/kg, time 14 day
[40] = Pulmonary toxicity in Albino mouse assessed as change in squamous pneumocytes at 50 to 2000 mg/kg, po measured after 14 days; format: organism-based; details: in vivo, 336 h, dose 50-2000 mg/kg, time 14 day
[41] = Acute toxicity in Albino mouse assessed as change in neutrophils at 50 to 2000 mg/kg, po measured after 14 days (reference value: 75%); format: organism-based; details: in vivo, 336 h, dose 50-2000 mg/kg, time 14 day
[42] = Acute toxicity in Albino mouse assessed as change in platelet count at 50 to 2000 mg/kg, po measured after 14 days (reference value: 3.24 mm3); format: organism-based; set-up: unit not given here; details: in vivo, 336 h, dose 50-2000 mg/kg, time 14 day
[43] = Hepatotoxicity in Albino mouse assessed as change in hepatic artery at 50 to 2000 mg/kg, po measured after 14 days; format: toxicity, organism-based, Liver; details: in vivo, 336 h, dose 50-2000 mg/kg, time 14 day
[44] = Renal toxicity in Albino mouse assessed as extravasation of RBC at 50 to 2000 mg/kg, po measured after 14 days; format: organism-based, Erythrocyte; details: in vivo, 336 h, dose 50-2000 mg/kg, time 14 day
[45] = Pulmonary toxicity in Albino mouse assessed as change in alveoli structure at 50 to 2000 mg/kg, po measured after 14 days; format: organism-based; details: in vivo, 336 h, dose 50-2000 mg/kg, time 14 day
[46] = Acute toxicity in Albino mouse assessed as change in ESR at 50 to 2000 mg/kg, po measured after 14 days (reference value: 10 millimeter); format: organism-based; details: in vivo, 336 h, dose 50-2000 mg/kg, time 14 day

With `CCOc1cc(/C=N/C2=C(Cl)C(=O)c3ccccc3C2=O)ccc1O` the MIC [1] was 6.25 µg/mL.
Compound `O=C1C(Cl)=C(N2C(=O)C(Cl)C2c2ccccc2)C(=O)c2ccccc21` (stereo unspecified) has an MIC [1] of 6.25 µg/mL.
`O=C1C(Cl)=C(/N=C/c2ccc([N+](=O)[O-])cc2)C(=O)c2ccccc21` showed an MIC [1] of 12.5 µg/mL.
`CO[C@H]1/C=C/O[C@@]2(C)Oc3c(C)c(O)c4c(O)c(c(/C=N/N5CCN(C)CC5)c(O)c4c3C2=O)NC(=O)/C(C)=C\C=C\[C@H](C)[C@H](O)[C@@H](C)[C@@H](O)[C@@H](C)[C@H](OC(C)=O)[C@@H]1C` [RIFAMPIN] gave an MIC [1] of 0.3 µM.
Compound `O=C1C(Cl)=C(/N=C/c2ccccc2O)C(=O)c2ccccc21` has an MIC [1] of 12.5 µg/mL.
In the case of `O=C1C(Cl)=C(N2C(=O)C(Cl)C2c2ccc([N+](=O)[O-])cc2)C(=O)c2ccccc21` (stereo unspecified), the Activity [2] is reported as 37.75 mg/dL, the Activity [3] is reported as “Non-Toxic” and the Activity [4] is reported as 9.85. For the same compound, the MIC [1] was 30 µM, the Activity [5] was “Non-Toxic” and the viability at 12.5 ug/ml [6] was 78%. The viability at 25 ug/ml [7] was 46.2%, the Activity [8] was “Non-Toxic” and the Activity [9] was 505 IU/L. For the same compound, the Activity [10] was 168.42 IU/L, the Activity [11] was “Non-Toxic” and the Activity [12] was “Non-Toxic”. The Activity [13] was “Non-Toxic”, the viability at 100 ug/ml [14] was 9.6% and the Activity [15] was “Non-Toxic”. For the same compound, the Activity [16] was 39%, the Activity [17] was 429.54 IU/L and the Activity [18] was “Toxic”. The Activity [19] was 1%, the Activity [20] was “Non-Toxic” and the Activity [21] was 0.33 mg/dL. For the same compound, the Activity [22] was 8800 mm3, the Activity [23] was “Dose-Dependent Effect” and the Activity [24] was “Non-Toxic”. The viability at 3.125 ug/ml [25] was 100%, the Activity [26] was 4% and the Activity [27] was “Non-Toxic”. For the same compound, the Activity [28] was “Non-Toxic”, the Activity [29] was “Non-Toxic” and the Activity [30] was “Non-Toxic”. For the same compound, the viability at 6.25 ug/ml [31] was 100%, the Activity [32] was “Non-Toxic” and the LD50 at 336 h [33] was 50 mg/kg. For the same compound, the Activity [34] was “Toxic”, the Activity [35] was “Non-Toxic” and the Activity [36] was 43.21 IU/L. For the same compound, the Activity [37] was “Non-Toxic”, the viability at 50 ug/ml [38] was 21.4% and the Activity [39] was 13.2 g/dL. For the same compound, the Activity [40] was “Non-Toxic”, the Activity [41] was 72% and the Activity [42] was 5.95. For the same compound, the Activity [43] was “Non-Toxic”, the Activity [44] was “Non-Toxic” and the Activity [45] was “Non-Toxic”. For the same compound, the Activity [46] was 15 millimeter/hr.
